Assay results from US9675574B2, “Composition comprising a combination of DHA and EPA for administration prior to commencement of chemotherapy” (Fresenius Kabi Deutschland GmbH, priority 2010, dated 2017).

Key:
[1] = system: HT-29 colorectal cancer cells; test: 15-day clonogenicity experiment, pretreatment before irradiation (Example 6); format: cell-based, human; conditions: 48 h pretreatment with 20 μM to 100 μM, irradiation 2 to 6 Gy
Protocol: (§1) HT-29 colorectal cancer cells (ATCC number HTB-38) were cultured in Dulbecco's Modified Eagle's Medium (DMEM, product number D 5030, Sigma Chemie AG, Buchs, Switzerland) supplemented with 10% heat-inactivated fetal calf serum (FBS), 1 g/L D-glucose, 3.7 g/L sodium bicarbonate and 0.1 g/L penicillin-streptomycin (all additives from Life Technologies Inc., Grand Island, N.Y.). The cells were cultured at 37° C. in a humidified atmosphere with a 5% CO2 content and kept in the exponential growth phase by twice weekly subculturing. The cultures were tested for mycoplasma infection using the MycoAlert Detection Kit (product number LT07-118, Cambrex, Verviers, Belgium).
The cytotoxic effect of a two-day (48 hours) pretreatment of HT-29 cells with 0 μM, 20 μM, 50 μM or 100 μM DHA or EPA on irradiation of the cells at 0 Gy, 2 Gy, 4 Gy or 6 Gy was examined in a 15-day clonogenicity experiment.
To this end, the culture medium of the cells was replaced with medium which contained the relevant concentrations (0 μM, 20 μM, 50 μM or 100 μM) of DHA or EPA. Controls were cultured in medium without EPA and without DHA. […] The cells were then detached from the culture vessel by means of trypsinization (1× trypsin-EDTA, Life Technologies Inc., Grand Island, N.Y.), resuspended and counted. […] The surviving cell fraction was calculated with reference to the untreated controls (S/S0).

[2] = system: colorectal cancer cell lines, breast cancer cell lines and lung cancer cell lines; test: Clonogenicity experiment with further tumor cell lines, pre- versus posttreatment (Example 7); format: cell-based; conditions: irradiation
Protocol: The experiment is carried out analogously with further tumor cell lines (colorectal cancer cell lines, breast cancer cell lines and lung cancer cell lines).

[3] = system: HT-29; test: 15-day clonogenicity experiment, treatment prior to versus after irradiation (Example 7); format: cell-based, human; conditions: treatment prior to irradiation (A) versus untreated controls (C) and treatment after irradiation (B); for formation of colonies: 20-100 μM, 48 h
Protocol: as §1, with “Human” for “HT-29 colorectal”, “cell lines (HT-29; ATCC” for “cells (ATCC”, “are” for “were”, “NY).” for “N.Y.).”
The cytotoxic effect of treatment of the cells with DHA, EPA, MCTs and iron on irradiation of the cells at 0 Gy, 2 Gy, 4 Gy or 6 Gy is examined in a 15-day clonogenicity experiment.
Firstly, the influence of 0 μM, 20 μM, 50 μM or 100 μM DHA or EPA in the case of treatment of the cells (A) prior to the irradiation compared to the treatment of the cells after the irradiation (B) is determined. Cells untreated with EPA or DHA, which are also irradiated, serve as a control (C).
In the case of the cells which are treated with EPA or DHA prior to the irradiation (A), the culture medium of the cells is replaced with medium containing the relevant concentrations (0 μM, 20 μM, 50 μM or 100 μM) of DHA or EPA. The cells are cultured for 48 hours in the medium, and then irradiated with an individual radiation dose of 0 Gy (control), 2 Gy, 4 Gy or 6 Gy in an X-ray 6 MV instrument.
In the case of cells which are treated with EPA or DHA after the irradiation (B) and in the case of the control cells (C), a media change is carried out 48 hours prior to the irradiation; the cells receive normal culture medium. After 48 hours, the cells are irradiated with an individual radiation dose of 0 Gy (control), 2 Gy, 4 Gy or 6 Gy in an X-ray 6 MV instrument.
After the irradiation, the cells are then detached from the culture vessel by means of trypsinization (1× trypsin-EDTA, Life Technologies Inc., Grand Island, NY), resuspended and counted. The cells are subsequently serially diluted according to a standard protocol and seeded in 100×20 mm cell culture dishes containing 10 mL of medium in a cell count which leads to the formation of about 200 colonies. Cells of groups A and C are seeded in normal culture medium, and cells of group B are seeded in medium containing the relevant concentrations (0 μM, 20 μM, 50 μM or 100 μM) of DHA or EPA.
After 48 hours, all cells are subjected to a media change, after which all cells are cultured in normal culture medium.
After a total of 14 days of incubation at 37° C., the vessels are washed with phosphate-buffered saline (PBS, Life Technologies Inc., Grand Island, N.Y.), fixed, and stained with a 0.5% crystal violet solution in methanol/glacial acetic acid (3:1, v/v). The surviving cell fraction is calculated with reference to the untreated controls (S/S0).

| Structure (SMILES) | effect on survival of HT-29 cells in combination with irradiation [1] | cytotoxic effect of pretreatment compared to posttreatment [2] | size of colonies formed [3] | surviving cell fraction (S/S0) [3] | formation of colonies [3] |
| --- | --- | --- | --- | --- | --- |
| CC/C=C\C/C=C\C/C=C\C/C=C\C/C=C\C/C=C\CCC(=O)O [DHA, (4Z,7Z,10Z,13Z,16Z,19Z)-docosa-4,7,10,13,16,19-hexaenoic acid] | synergistic effect | greater cytotoxic effect | colonies formed are smaller | also smaller | fewer colonies |
| CC/C=C\C/C=C\C/C=C\C/C=C\C/C=C\CCCC(=O)O [EPA, (5Z,8Z,11Z,14Z,17Z)-eicosa-5,8,11,14,17-pentaenoic acid] | synergistic effect | greater cytotoxic effect | colonies formed are smaller | also smaller | fewer colonies |
